Test results reported in patent US11814367B2, “Inhibitors of glycogen synthase 1 (GYS1) and methods of use thereof” (Maze Therapeutics, Inc., priority 2021, dated 2023).

Legend:
[1] = target: hGYS1 enzyme (recombinant hGYS1/GN1 protein) (Homo sapiens (Human), UniProt P13807); assay: GYS1 coupled enzyme assay (PK/LDH); type: biochemical; conditions: hGYS1/GN1 50 nM, UDP-Glucose 0.8 mM, G6P 1 mM; geometric mean of at least 2 runs
[2] = system: hGYS1 enzyme / glycogen synthesis in HeLa cells; assay: GYS1 cell based assay (glycogen synthesis, Glucose-glo); design: species or system human; conditions: Homo sapiens, HeLa, 24 h, 24 h incubation, 20 mM glucose, geometric mean of at least 2 runs
Summary of the method: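 HeLa cells starved 24 h in medium containing only 1× Glutamax were plated onto compound in medium with 20 mM glucose (1% DMSO final) for 24 h, 37 °C, 5% CO2. Acid lysates were Tris-quenched, glucoamylase-digested (pH 5.3, 1 h, 37 °C) and read by Glucose-glo luminescence. IC50 came from Hill fits, as geometric mean of ≥2 runs.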

[3] = target: hGYS2 enzyme (recombinant hGYS2/GN1 protein) (Homo sapiens (Human), UniProt P54840); assay: GYS2 coupled enzyme assay (PK/LDH); type: biochemical; conditions: geometric mean of at least 2 assay runs on separate days, read-out: Avg_IC50
Chain of hGYS2 enzyme (recombinant hGYS2/GN1 protein) (P54840 whole entry): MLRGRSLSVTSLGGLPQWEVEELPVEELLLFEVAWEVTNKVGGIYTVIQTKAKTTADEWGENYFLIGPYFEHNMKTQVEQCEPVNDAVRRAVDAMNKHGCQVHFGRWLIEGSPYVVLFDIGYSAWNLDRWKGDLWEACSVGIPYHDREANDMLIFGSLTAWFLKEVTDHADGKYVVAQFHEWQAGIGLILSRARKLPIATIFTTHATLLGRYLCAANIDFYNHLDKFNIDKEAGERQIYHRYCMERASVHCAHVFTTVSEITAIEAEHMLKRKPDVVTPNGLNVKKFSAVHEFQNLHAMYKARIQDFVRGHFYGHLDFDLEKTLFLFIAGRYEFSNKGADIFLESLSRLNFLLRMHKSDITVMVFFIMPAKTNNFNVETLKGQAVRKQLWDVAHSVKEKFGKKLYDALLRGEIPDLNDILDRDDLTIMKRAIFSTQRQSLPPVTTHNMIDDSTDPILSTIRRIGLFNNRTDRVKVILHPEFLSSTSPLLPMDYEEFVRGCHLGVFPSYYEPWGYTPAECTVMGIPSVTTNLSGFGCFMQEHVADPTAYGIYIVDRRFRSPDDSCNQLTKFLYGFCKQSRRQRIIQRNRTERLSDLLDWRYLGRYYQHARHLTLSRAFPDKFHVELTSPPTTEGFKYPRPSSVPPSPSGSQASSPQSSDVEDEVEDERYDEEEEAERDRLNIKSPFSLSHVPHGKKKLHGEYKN
Chain of hGYS2 enzyme (recombinant hGYS2/GN1 protein) (P46976 whole entry partner): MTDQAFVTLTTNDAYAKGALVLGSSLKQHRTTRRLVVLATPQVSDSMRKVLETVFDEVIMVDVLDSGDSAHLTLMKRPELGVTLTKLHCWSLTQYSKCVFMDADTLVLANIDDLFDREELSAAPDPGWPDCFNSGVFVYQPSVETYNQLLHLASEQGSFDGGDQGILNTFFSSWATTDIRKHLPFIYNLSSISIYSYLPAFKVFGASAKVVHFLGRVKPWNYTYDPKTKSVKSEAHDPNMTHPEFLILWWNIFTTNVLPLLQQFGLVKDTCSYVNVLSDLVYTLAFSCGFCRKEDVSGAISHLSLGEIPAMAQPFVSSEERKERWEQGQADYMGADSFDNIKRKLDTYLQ
Summary of the method: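 Read-out: NADH loss at 340 nm, read each minute for 10 min, slope normalized to controls, duplicate % inhibition fit to Hill (0–100). Enzyme: 200 nM hGYS2/GN1; substrate 2 mM UDP-glucose plus 0.2% glycogen and 2 mM G6P; pH 7.5 Tris, 2.5% DMSO.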

Chain of hGYS1 enzyme (recombinant hGYS1/GN1 protein) (P13807 whole entry): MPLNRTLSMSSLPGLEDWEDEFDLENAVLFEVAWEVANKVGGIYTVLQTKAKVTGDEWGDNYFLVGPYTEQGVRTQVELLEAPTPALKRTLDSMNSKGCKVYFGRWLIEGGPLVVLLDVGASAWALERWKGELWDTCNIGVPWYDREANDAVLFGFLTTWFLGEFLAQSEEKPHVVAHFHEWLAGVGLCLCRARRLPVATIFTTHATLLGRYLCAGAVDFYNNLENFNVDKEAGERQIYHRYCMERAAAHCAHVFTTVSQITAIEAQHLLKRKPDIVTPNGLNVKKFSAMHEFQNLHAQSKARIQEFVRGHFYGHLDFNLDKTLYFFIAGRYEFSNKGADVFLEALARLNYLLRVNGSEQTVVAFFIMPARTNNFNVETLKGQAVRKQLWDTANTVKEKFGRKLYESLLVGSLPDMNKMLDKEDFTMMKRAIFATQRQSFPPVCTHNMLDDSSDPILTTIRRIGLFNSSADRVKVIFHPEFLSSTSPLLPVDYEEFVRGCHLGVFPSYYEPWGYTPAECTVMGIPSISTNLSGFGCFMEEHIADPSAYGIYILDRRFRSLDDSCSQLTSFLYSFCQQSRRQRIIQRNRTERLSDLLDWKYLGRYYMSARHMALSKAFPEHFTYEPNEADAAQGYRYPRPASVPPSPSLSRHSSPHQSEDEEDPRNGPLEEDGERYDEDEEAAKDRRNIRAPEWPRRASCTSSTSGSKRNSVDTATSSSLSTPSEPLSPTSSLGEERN
Chain of hGYS1 enzyme (recombinant hGYS1/GN1 protein) (P46976 whole entry partner): as the sequence (P46976 whole entry partner) above

## Cn1c(CC(=O)N2C[C@H](F)C[C@H]2C(=O)N[C@@H](c2ccccc2)c2ccc(C3CC3)c(F)n2)noc1=O [Compound 719, (2S,4R)-N-[(S)-(5-cyclopropyl-6-fluoropyridin-2-yl)(phenyl)methyl]-4-fluoro-1-[2-(4-methyl-5-oxo-4,5-dihydro-1,2,4-oxadiazol-3-yl)acetyl]pyrrolidine-2-carboxamide]
[1]
  IC50: 254 nM
[2]
  IC50: 2220 nM
[3]
  IC50: > 100000 nM

## O=C(N[C@@H](c1ccccc1)c1ccc(C2CC(F)(F)C2)c(F)n1)[C@@H]1C[C@@H](F)CN1C(=O)Cc1ccc[nH]c1=O [Compound 517, (2S,4R)-N-[(S)-[5-(3,3-difluorocyclobutyl)-6-fluoropyridin-2-yl](phenyl)methyl]-4-fluoro-1-[2-(2-oxo-1,2-dihydropyridin-3-yl)acetyl]pyrrolidine-2-carboxamide]
[1]
  IC50: 8 nM
[2]
  IC50: 540 nM
[3]
  IC50: > 100000 nM

## CNC(=O)NCC(=O)N1C[C@H](F)C[C@H]1C(=O)N[C@@H](c1ccccc1)c1ccc(C2CC2)c(F)n1 [Compound 301, (2S,4R)-N-[(S)-(5-cyclopropyl-6-fluoropyridin-2-yl)(phenyl)methyl]-4-fluoro-1-{2-[(methylcarbamoyl)amino]acetyl}pyrrolidine-2-carboxamide]
[1]
  IC50: 46 nM
[2]
  IC50: 900 nM
[3]
  IC50: > 100000 nM

## O=C(N[C@@H](c1ccccc1)c1ccc(C2CC2)c(F)c1)[C@@H]1C[C@@H](F)CN1C(=O)CNC(=O)N1CC(C(F)(F)F)C1 [Compound 496, (2S,4R)-N-[(S)-(4-cyclopropyl-3-fluorophenyl)(phenyl)methyl]-4-fluoro-1-(2-{[3-(trifluoromethyl)azetidine-1-carbonyl]amino}acetyl) pyrrolidine-2-carboxamide]
[1]
  IC50: 86 nM
[2]
  IC50: 1820 nM
[3]
  IC50: > 100000 nM
